System: mosquitos
Test: Insecticidal effect (knock-down effect) by the open cylinder method
Type: in vivo
Details: for Insecticidal effect 15d (relative effectiveness ratio): fifteenth day; for Insecticidal effect 1d (relative effectiveness ratio): first day; for Insecticidal effect 30d (relative effectiveness ratio): thirtieth day
Text: An insecticide was impregnated in various kinds of raw materials for preparing insecticide impregnated materials. The resulting insecticide-impregnated materials were housed in their respective insecticide cartridges of Example 1 and Comparative Example 1, followed by mounting each of them on an insecticide transpiration apparatus of the present invention. Subsequently, each of them was subjected to a measurement for estimating the transpiring amount of the chemical and a test for estimating insecticide effects on the first, fifteenth and thirtieth days while using the apparatus for twelve hours a day.
A test of insecticidal effect (knock-down effect) was performed by the open cylinder method according to the following procedures.
Procedures for Estimating the Insecticidal Effect of an Insecticidal Compound
Two plastic cylinders of 20 cm in inside diameter and 43 cm in height are piled up. A cylinder of 20 cm both in inside diameter and height is partitioned vertically with a wire net of 16 mesh (the place where the mosquitos are put in), and is placed thereon. A cylinder of 20 cm in inside diameter and height is further placed thereon. This set consisting of the four cylinders is placed on a stand, and an insecticide transpiration apparatus is placed in the middle of the stand to transpire the insecticidal ingredient in the chemical-impregnated material to be examined. Then about 20 mosquitos to be tested are released in the upper stair of the cylinder set and the number of mosquitos knocked down is observed with the time elapsed.
Furthermore, the insecticidal effect was indicated as a relative effectiveness ratio in which an initial turning-over effect obtained by evaporation from a mosquito-repellent mat containing dl, d-cis, trans-allethrin (Pynamin Forte) on condition that a radiator plate of a heating unit is at a temperature of 160° C. The above test was repeated with various kinds of insecticides and the various amounts thereof, various chemical-impregnated materials and various particle sizes thereof, various free-volumes of the insecticide cartridge, various rotational speeds of the motor, respectively.

[1] = cartridge of Comparative Example 1, relative to Pynamin Forte mat
[2] = cartridge of Example 1, relative to Pynamin Forte mat
[3] = cartridge of Example 1, relative to initial effect of dl, d-cis, trans-allethrin (Pynamin Forte) mat at 160° C.

Structure (SMILES)	Insecticidal effect 15d (relative effectiveness ratio) [1]	Insecticidal effect 1d (relative effectiveness ratio) [1]	Insecticidal effect 30d (relative effectiveness ratio) [1]	Insecticidal effect 15d (relative effectiveness ratio) [2]	Insecticidal effect 1d (relative effectiveness ratio) [3]	Insecticidal effect 30d (relative effectiveness ratio) [2]
CC(C)=CC1C(C(=O)OCc2c(F)c(F)c(C)c(F)c2F)C1(C)C (stereo not drawn) [Compound C, 4-methyl-2,3,5,6-tetrafluorobenzyl-chrysanthemate]	1.7	1.8	1.6	2.2	2.3	2.2
CC=CC1C(C(=O)OCc2c(F)c(F)c(COC)c(F)c2F)C1(C)C (stereo not drawn) [Compound G, 4-methoxymethyl-2,3,5,6-tetrafluorobenzyl-2,2-dimethyl-3-(1-propenyl)cyclopropane carboxylate]	2.8	2.9	2.8	3.4	3.4	3.4
CC=CC1C(C(=O)OCc2c(F)c(F)cc(F)c2F)C1(C)C (stereo not drawn) [Compound B, 2,3,5,6-tetrafluorobenzyl-2,2-dimethyl-3-(1-propenyl) cyclopropane carboxylate]	2.1	2.2	2.0	2.7	2.8	2.7
C#CCc1c(F)c(F)c(COC(=O)C2C(C=CC)C2(C)C)c(F)c1F (stereo not drawn) [Compound I, 4-propargyl-2,3,5,6-tetrafluorobenzyl-3-(1-propenyl)-2,2-dimethylcyclopropane carboxylate]	2.5	2.6	2.4	2.9	3.0	2.9
CC(C)=CC1C(C(=O)OCc2c(F)c(F)cc(F)c2F)C1(C)C (stereo not drawn) [Compound A, 2,3,5,6-tetrafluorobenzyl-chrysanthemate]	3.3	3.4	3.3	3.8	3.9	3.8
COCc1c(F)c(F)c(COC(=O)C2C(C)(C)C2(C)C)c(F)c1F [Compound J, 4-methoxymethyl-2,3,5,6-tetrafluorobenzyl-2,2,3,3-tetramethylcyclopropane carboxylate]	2.4	2.5	2.4	2.8	2.9	2.8
CC=CC1C(C(=O)OCc2c(F)c(F)c(C)c(F)c2F)C1(C)C (stereo not drawn) [Compound D, 4-methyl-2,3,5,6-tetrafluorobenzyl-2,2-dimethyl-3-(1-propenyl)cyclopropane carboxylate]	2.7	2.8	2.6	3.2	3.2	3.1
CC1(C)C(C=C(Cl)C(F)(F)F)C1C(=O)OCc1c(F)c(F)c(F)c(F)c1F (stereo not drawn) [Compound H, 2,3,4,5,6-pentafluorobenzyl-2,2-dimethyl-3-(2-chloro-2-trifluoromethylvinyl)cyclopropane carboxylate]	1.7	1.9	1.7	2.3	2.4	2.3
COCc1c(F)c(F)c(COC(=O)C2C(C=C(C)C)C2(C)C)c(F)c1F (stereo not drawn) [Compound F, 4-methoxymethyl-2,3,5,6-tetrafluorobenzyl-chrysanthemate]	1.7	1.9	1.5	2.5	2.6	2.5
C#CCc1c(F)c(F)c(COC(=O)C2C(C)(C)C2(C)C)c(F)c1F [Compound K, 4-propargyl-2,3,5,6-tetrafluorobenzyl-2,2,3,3-tetramethyl cyclopropane carboxylate]	2.2	2.3	2.1	2.7	2.8	2.7
Cc1c(F)c(F)c(COC(=O)C2C(C=C(F)F)C2(C)C)c(F)c1F (stereo not drawn) [Compound E, 4-methyl-2,3,5,6-tetrafluorobenzyl-2,2-dimethyl-3-(2,2-difluorovinyl)cyclopropane carboxylate]	2.3	2.4	2.3	2.8	2.9	2.8
